Reference: ChEMBL document CHEMBL1201862, “PubChem BioAssay data set” (2004)
Active and inactive are the calls of the source.

What was measured:
[1] = target: T1, Long-chain-fatty-acid--AMP ligase FadD28 (Mycobacterium tuberculosis, UniProt P9WQ59); experiment: Fluorescence polarization aasay to screen for inhibitors that compete for the binding of FadD28 to a bisubstrate Measured in Biochemical System Using Plate Reader - 2147-01_Inhibitor_Dose_CherryPick_Activity.; assay type: functional, Mycobacterium tuberculosis H37Rv
T1 sequence (P9WQ59 whole entry): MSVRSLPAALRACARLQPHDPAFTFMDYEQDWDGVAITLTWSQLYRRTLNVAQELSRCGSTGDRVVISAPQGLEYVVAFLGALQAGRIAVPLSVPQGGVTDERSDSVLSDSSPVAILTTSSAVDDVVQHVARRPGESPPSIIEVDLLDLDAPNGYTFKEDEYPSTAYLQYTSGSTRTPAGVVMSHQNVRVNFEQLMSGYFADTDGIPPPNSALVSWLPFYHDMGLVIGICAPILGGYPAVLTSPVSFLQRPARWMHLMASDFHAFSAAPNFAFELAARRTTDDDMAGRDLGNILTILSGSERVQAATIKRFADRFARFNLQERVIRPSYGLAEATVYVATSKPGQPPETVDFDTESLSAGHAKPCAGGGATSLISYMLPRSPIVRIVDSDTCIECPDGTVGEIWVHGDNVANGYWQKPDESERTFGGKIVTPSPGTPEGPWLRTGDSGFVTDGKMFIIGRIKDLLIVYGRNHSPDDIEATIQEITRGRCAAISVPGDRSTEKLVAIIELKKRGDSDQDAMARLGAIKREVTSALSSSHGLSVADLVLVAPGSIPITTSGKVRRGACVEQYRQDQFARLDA

[2] = target: Steroidogenic factor 1 (Homo sapiens, UniProt Q13285); experiment: Counterscreen for inverse agonists of the liver receptor homolog-1 (LRH-1; NR5A2): Luminescence-based cell-based high throughput dose response assay to identify inverse agonists of the Steroidogenic Factor 1 Nuclear Receptor (SF1; NR5A1).; assay type: functional
[3] = nonselective StAR promoter luciferase inhibitors – cell-based, luminescence, luciferase reporter, counter-screen for LRH-1 inverse agonist project, dose response (AID 651969); assay type: functional
[4] = target: Nuclear receptor subfamily 5 group A member 2 (Homo sapiens, UniProt O00482); assay type: functional, cell-based;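 note: HEK293T cells transfected with LRH-1 and a StAR promoter luciferase reporter; potency for inhibitors that lower LRH-1 driven reporter light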
[5] = target: T2, Aminopeptidase N (Plasmodium falciparum FcB1/Columbia, UniProt O96935); experiment: malaria alanyl aminopeptidase activity blockers – biochemical, fluorogenic H-Leu-NHMec substrate, 1536-well (AID 1445); design: species or system Plasmodium falciparum 3D7, 3D7
T2 sequence (O96935 whole entry): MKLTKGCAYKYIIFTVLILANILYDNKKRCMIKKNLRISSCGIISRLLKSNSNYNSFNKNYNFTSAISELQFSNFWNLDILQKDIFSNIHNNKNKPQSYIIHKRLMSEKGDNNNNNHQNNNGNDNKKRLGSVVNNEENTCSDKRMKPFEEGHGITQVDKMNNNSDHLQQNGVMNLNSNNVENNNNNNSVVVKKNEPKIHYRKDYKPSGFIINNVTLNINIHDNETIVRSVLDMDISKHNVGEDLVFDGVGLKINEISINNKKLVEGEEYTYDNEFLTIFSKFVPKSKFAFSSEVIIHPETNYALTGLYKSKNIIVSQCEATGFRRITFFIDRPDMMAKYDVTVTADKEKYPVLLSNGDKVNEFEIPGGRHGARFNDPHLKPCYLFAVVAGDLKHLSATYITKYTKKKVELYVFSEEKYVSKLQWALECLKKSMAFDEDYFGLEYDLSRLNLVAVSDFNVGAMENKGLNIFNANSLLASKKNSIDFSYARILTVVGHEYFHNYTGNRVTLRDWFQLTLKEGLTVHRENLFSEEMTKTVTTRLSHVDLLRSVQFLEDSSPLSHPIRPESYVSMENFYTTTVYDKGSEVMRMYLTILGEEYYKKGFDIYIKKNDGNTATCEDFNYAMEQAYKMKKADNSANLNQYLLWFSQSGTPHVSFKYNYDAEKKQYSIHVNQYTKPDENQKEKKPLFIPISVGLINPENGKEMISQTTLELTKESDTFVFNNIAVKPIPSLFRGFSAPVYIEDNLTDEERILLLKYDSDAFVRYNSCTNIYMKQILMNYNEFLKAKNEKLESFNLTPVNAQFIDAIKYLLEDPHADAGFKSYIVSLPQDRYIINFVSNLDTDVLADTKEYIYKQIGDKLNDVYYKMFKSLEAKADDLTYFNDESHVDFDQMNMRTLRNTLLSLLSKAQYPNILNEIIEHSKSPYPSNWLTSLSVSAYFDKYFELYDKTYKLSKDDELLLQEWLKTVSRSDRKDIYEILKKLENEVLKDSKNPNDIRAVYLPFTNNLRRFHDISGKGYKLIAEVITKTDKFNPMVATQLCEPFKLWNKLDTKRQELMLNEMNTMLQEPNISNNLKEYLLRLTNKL

[6] = target: T3, Leucine aminopeptidase (Plasmodium falciparum 3D7, UniProt Q8IL11); experiment: P. falciparum M17LAP inhibitors, primary screen, biochemical, fluorogenic H-Leu-NHMec substrate, 1536-well (AID 1619); assay type: functional
T3 sequence (Q8IL11 whole entry): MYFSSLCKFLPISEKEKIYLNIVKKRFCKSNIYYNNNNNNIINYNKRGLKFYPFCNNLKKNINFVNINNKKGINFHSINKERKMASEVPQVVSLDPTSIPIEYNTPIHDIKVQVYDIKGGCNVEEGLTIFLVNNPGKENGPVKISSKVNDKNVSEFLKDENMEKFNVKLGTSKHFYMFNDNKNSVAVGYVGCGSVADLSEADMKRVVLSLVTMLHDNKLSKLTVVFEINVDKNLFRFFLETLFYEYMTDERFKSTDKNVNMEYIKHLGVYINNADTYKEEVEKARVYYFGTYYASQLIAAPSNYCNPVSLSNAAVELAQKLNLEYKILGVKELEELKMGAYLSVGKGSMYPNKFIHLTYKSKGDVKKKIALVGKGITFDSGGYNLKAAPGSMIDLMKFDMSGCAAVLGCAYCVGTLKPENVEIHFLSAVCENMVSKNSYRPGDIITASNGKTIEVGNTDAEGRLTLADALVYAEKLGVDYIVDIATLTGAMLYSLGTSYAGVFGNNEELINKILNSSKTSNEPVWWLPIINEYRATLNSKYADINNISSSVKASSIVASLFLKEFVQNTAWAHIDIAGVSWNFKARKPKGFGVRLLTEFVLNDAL

[7] = target: T4, Corticotropin-releasing factor receptor 2/Corticotropin-releasing factor-binding protein (Homo sapiens, UniProt P24387+Q13324); experiment: activators of CRF receptor 2 with binding protein – uHTS hits, confirmation (AID 602473); assay type: functional; settings: read-out: EC50_Mean
T4 sequence (Q13324 whole entry): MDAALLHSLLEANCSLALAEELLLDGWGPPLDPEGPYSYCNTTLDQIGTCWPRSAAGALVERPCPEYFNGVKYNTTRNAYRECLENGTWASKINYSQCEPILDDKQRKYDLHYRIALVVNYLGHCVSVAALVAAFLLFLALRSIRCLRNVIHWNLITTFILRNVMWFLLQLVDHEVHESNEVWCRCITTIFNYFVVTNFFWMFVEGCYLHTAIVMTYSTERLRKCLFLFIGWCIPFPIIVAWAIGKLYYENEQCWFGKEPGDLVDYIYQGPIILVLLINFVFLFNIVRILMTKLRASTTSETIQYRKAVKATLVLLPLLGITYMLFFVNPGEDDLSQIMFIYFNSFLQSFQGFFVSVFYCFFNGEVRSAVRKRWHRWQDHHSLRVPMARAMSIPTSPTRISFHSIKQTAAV
T4 sequence (P24387 whole entry): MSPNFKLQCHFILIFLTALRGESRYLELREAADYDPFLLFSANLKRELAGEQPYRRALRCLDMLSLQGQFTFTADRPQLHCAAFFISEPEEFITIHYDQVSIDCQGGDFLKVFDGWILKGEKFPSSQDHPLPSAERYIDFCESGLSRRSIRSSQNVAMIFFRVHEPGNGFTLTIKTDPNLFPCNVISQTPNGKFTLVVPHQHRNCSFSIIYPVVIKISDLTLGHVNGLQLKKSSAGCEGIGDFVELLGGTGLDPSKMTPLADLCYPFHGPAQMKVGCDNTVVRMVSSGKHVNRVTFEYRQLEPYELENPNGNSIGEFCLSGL

[8] = blockers of CRF-binding protein–CRF-R2 complex – cell-based, uHTS hits, 384-well, dose response (AID 651639); assay type: functional, Homo sapiens; settings: read-out: IC50_Mean
[9] = target: T4, Corticotropin-releasing factor receptor 2/Corticotropin-releasing factor-binding protein; experiment: Dose Response confirmation of uHTS hits for small molecule antagonists of the CRF-binding protein and CRF-R2 receptor complex.; assay type: functional; settings: read-out: IC50_Mean
[10] = target: T5, Calpain-2 catalytic subunit (Sus scrofa, UniProt P43367); experiment: m-calpain protease blockers, concentration series – biochemical, fluorogenic peptide substrate, dose response (AID 1420); assay type: functional
T5 sequence (P43367 whole entry): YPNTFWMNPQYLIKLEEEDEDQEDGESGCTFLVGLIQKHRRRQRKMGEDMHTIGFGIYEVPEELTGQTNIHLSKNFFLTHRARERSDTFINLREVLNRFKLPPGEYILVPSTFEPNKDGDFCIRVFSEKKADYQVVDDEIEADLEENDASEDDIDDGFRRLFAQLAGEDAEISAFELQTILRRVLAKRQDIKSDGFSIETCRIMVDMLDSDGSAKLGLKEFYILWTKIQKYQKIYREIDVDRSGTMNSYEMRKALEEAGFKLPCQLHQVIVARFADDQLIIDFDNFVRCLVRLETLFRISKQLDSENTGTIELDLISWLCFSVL

[11] = target: T6, Methionyl-tRNA synthetase, putative (Trypanosoma brucei brucei, UniProt Q38C91); assay type: functional, Trypanosoma brucei brucei strain 927/4 GUTat10.1
T6 sequence (Q38C91 whole entry): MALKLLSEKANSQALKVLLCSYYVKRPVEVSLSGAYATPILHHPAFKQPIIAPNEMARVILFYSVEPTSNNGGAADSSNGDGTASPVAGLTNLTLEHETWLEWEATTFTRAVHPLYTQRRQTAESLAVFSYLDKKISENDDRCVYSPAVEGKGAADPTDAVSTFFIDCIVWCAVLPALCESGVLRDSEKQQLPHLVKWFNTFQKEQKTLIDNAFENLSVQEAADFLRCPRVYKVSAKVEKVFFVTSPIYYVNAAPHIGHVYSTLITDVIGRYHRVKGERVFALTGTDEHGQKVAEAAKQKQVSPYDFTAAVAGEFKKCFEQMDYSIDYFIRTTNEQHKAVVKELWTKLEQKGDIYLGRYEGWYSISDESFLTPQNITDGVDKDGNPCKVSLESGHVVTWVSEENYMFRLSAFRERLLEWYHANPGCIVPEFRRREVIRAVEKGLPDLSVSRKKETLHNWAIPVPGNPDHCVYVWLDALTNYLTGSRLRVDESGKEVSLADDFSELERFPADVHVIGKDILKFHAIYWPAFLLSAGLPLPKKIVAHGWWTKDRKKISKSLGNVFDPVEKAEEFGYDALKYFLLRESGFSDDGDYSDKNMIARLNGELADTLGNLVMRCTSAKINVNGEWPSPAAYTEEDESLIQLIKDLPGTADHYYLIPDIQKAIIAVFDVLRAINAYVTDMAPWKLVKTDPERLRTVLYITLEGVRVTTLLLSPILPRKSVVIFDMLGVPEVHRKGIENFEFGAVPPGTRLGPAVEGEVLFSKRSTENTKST

[12] = target: T6, Methionyl-tRNA synthetase, putative; assay type: functional, Trypanosoma brucei brucei strain 927/4 GUTat10.1; remark: listed apart in the source
[13] = blockers of HIV-1 envelope-mediated cell-cell fusion – cherry-pick, dose response (AID 652057); assay type: functional, cell-based
[14] = off-target signal loss in HeLa-CEM21 co-culture – HeLa F-luc CTL cells, cherry-picked, counter-screen for HIV-1 Env fusion inhibitor project, dose response (AID 652040); assay type: functional, cell-based;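 note: potency for signal decrease marking cytotoxic or nonspecific inhibition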
[15] = blockers of HIV-1 ZM109 envelope-driven cell-cell fusion – HeLa effector, CEM target cells, luciferase, cherry-pick, dose response (AID 652058); assay type: functional, cell-based;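 note: luciferase signal from HIV-1 Env mediated cell-cell fusion of effector and target cells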
[16] = HIV-1 AD8 envelope cell-cell fusion blockers – cherry-pick, dose response (AID 652062); assay type: functional, cell-based;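 note: luciferase signal from cell-cell fusion driven by HIV-1 clade B AD8 Env; potency is for inhibitors of fusion seen as a drop in luminescence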
[17] = Counterscreen for inhibitors of Trypanosoma brucei methionyl tRNA synthetase (MetRS): Luminescence-based cell-based high throughput dose response assay to identify compounds that are cytotoxic to Jurkat human T lymphocyte cells.; assay type: functional

Sequence of Nuclear receptor subfamily 5 group A member 2 (O00482 whole entry): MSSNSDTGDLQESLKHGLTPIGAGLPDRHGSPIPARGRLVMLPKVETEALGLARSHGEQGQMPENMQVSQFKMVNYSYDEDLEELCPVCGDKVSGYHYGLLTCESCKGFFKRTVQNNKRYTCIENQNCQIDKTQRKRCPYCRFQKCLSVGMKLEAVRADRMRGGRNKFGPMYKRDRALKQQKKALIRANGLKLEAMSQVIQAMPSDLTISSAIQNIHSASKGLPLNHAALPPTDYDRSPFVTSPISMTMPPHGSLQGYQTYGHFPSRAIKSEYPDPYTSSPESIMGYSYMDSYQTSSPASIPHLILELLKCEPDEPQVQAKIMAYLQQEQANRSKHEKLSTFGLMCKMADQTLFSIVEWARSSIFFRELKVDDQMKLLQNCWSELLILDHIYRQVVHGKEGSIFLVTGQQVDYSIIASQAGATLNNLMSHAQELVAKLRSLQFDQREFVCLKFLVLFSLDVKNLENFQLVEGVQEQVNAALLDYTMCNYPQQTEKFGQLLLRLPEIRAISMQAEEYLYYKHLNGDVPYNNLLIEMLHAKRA
Sequence of Steroidogenic factor 1 (Q13285 whole entry): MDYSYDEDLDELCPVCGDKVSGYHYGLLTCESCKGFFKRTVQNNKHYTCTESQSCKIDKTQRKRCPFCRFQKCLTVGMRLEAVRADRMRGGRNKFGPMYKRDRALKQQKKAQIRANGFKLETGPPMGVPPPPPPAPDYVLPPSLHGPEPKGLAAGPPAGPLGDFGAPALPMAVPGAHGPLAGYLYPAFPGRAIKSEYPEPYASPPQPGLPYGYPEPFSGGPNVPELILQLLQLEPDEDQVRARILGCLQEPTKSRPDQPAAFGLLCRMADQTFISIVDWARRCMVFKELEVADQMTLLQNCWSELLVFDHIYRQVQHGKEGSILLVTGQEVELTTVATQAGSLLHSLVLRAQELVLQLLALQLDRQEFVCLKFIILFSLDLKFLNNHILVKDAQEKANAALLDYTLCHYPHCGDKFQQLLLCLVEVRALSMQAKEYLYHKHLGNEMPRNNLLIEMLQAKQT

SMILES: O=C(CN1C(=O)NC2(CCOc3ccccc32)C1=O)c1ccc(Cl)s1 (stereo unspecified)
- AC50 [1]: > 100 µM (inactive)

SMILES: CS(=O)(=O)c1ccc(-c2cc(NC=O)c3ncc(-c4ccc(F)cc4)n3c2)cc1
- IC50 [2]: 2.73 µM (active)
- IC50 [3]: 12.4 µM (inactive)
- IC50 [4]: 4.22 µM (active)

SMILES: COc1ccc(CCNC(=O)CSc2ccc(NC(C)=O)cc2)cc1OC
- IC50 [2]: 2.27 µM (active)
- IC50 [3]: 35.9 µM (inactive)
- IC50 [4]: 17.4 µM (inactive)

SMILES: Cc1ccccc1C(=O)NC1CCN(CC(=O)Nc2ccc(Br)cc2)CC1
- IC50 [2]: 3.32 µM (active)
- IC50 [3]: 35.9 µM (inactive)
- IC50 [4]: 35.9 µM (inactive)

SMILES: COc1ccc(/C=C2\SC(NS(=O)(=O)c3cccs3)=NC2=O)cc1
- IC50 [5]: 41.1 µM (active)
- IC50 [6]: 31 µM (active)
- EC50 [7]: > 53 µM (inactive)
- IC50 [8]: > 20 µM (inactive)
- IC50 [9]: 36.5 µM (active)

SMILES: O=C(NCc1ccco1)c1cccc(Nc2nc3ccc(Br)cc3[nH]2)c1
- IC50 [10]: 11.9 µM (not active)
- IC50 [11]: 13.5 µM (inactive)
- IC50 [12]: 22.3 µM (inactive)

SMILES: COc1ccc(Nc2c(CCc3ccccc3)nc3nc(C)cc(C)n23)cc1
- AC50 [13]: 5.27 µM (active)
- AC50 [14]: 4.03 µM (active)
- AC50 [15]: 6.28 µM (active)
- AC50 [16]: 4.63 µM (active)

SMILES: O=C(OCC(=O)c1c[nH]c2ccccc12)c1ccc(F)c(S(=O)(=O)N2CCOCC2)c1
- AC50 [1]: 60.2 µM (active)

SMILES: O=C(NCc1ccco1)c1cccc(Nc2nc3cc(Br)ccc3[nH]2)c1
- IC50 [17]: 83.3 µM (inactive)

SMILES: O=C(NNC(=O)c1cc(-c2cccnc2)nc2ccccc12)Nc1ccc(Cl)cc1
- IC50 [11]: 25.8 µM (inactive)
- IC50 [17]: 63 µM (inactive)
- IC50 [12]: 39.5 µM (inactive)

SMILES: O=C(c1ccco1)N(Cc1cccc([N+](=O)[O-])c1)c1ccc(Br)cc1
- IC50 [10]: 12 µM (not active)
- EC50 [7]: > 53 µM (inactive)
- IC50 [8]: > 20 µM (inactive)
- IC50 [9]: < 0.368 µM (active)
